This note sets out measurements from ChEMBL document CHEMBL1201862, “PubChem BioAssay data set” (2004).

Test systems include UO-31; BT-549; UACC-62; UACC-257; KM12; NCI-H522; K562; HT-29; OVCAR-4; EKVX; RPMI-8226; T47D; M14; MOLT-4; A498; A549; SNB-75; Hs-578T; MDA-N; RXF 393.
Test in all cases: growth of human tumour cells (NCI), 48 h

Structures are written as SMILES.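 Cells were grown in 96-well plates and exposed to each compound for 48 hours at five concentrations; endpoints were interpolated linearly between bracketing concentrations, or set to the highest concentration if not reached. At the GI50, growth is halved.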 Calls of active or inactive are those of the source. Rule as the data show it: active = GI50 up to about 1.1 µM and inactive = higher. Where a SMILES comes first, the peptide text is derived from it. The star is where a group is joined. Boc = CC(C)(C)OC(=O)* Where only a bound is given, the exact number is not on record here.

Regarding `O=[N+]([O-])c1ccc(CSc2c3ccccc3nc3ccccc23)cc1`, the GI50 in the test with UO-31 is 5.62 µM (inactive); with BT-549, 18.8 µM (inactive); with UACC-62 it was 14.4 µM (inactive); in the test on UACC-257 it was 3.33 µM (inactive); with KM12 it was 4.62 µM (inactive); with NCI-H522, 1.9 µM (inactive). Also, the GI50 with K562 was 5.01 µM (inactive); in the test on HT-29, 2.28 µM (inactive); in the test on OVCAR-4, 15.6 µM (inactive); with EKVX, 15.9 µM (inactive); with RPMI-8226 it was 2.85 µM (inactive); in the test on T47D it was 1.85 µM (inactive). Besides, the GI50 with M14 was 4.56 µM (inactive); with MOLT-4, 2.31 µM (inactive); with A498 it was 23.7 µM (inactive); in the test on A549, 23.9 µM (inactive); with SNB-75, 19 µM (inactive); in the test on Hs-578T, 3.21 µM (inactive). The results for the GI50 with MDA-N and in the test on RXF 393 were 9.86 µM (inactive) and 5.47 µM (inactive), respectively.
As for `C[C@H]1[C@H](C)N1CC(O)Cn1ccnc1[N+](=O)[O-]` (stereo partly drawn), the GI50 with UO-31, with BT-549, in the test on UACC-62, in the test with UACC-257, in the test on KM12 and in the test on NCI-H522 was > 100 µM (inactive) each time. The GI50 with K562, in the test with HT-29, in the test with OVCAR-4, in the test with EKVX, in the test on RPMI-8226 and in the test on T47D was > 100 µM (inactive) each time. The GI50 is > 100 µM (inactive) in the test on M14; > 67.6 µM (inactive) with MOLT-4; > 100 µM (inactive) in the test with A498; > 100 µM (inactive) in the test on A549; > 100 µM (inactive) in the test on SNB-75; > 100 µM (inactive) with Hs-578T. In addition, the GI50 in the test with MDA-N and with RXF 393 was > 100 µM (inactive) each time.
Regarding `COc1ccc2cc(Oc3ccc(Cl)cc3)c(=O)oc2c1`, the GI50 in the test on UO-31, in the test with BT-549, with UACC-257, in the test on KM12, with NCI-H522 and in the test on K562 was > 100 µM (inactive) each time. In addition, the GI50 in the test on HT-29, with OVCAR-4, in the test with EKVX, with RPMI-8226, with T47D and with M14 was > 100 µM (inactive) throughout. Moreover, the GI50 in the test on MOLT-4 was > 100 µM (inactive); with A498 it was 93.5 µM (inactive); in the test with A549 it was > 100 µM (inactive); in the test with SNB-75, > 100 µM (inactive); in the test with Hs-578T, > 100 µM (inactive); in the test on MDA-N it was > 100 µM (inactive). In addition, the GI50 with RXF 393 was > 100 µM (inactive).
Regarding `N#CCCN(CCCN(C(=O)N(c1ccccc1)c1ccccc1)c1ccccc1)C(=O)Nc1ccccc1`, the GI50 in the test on UO-31 was 67 µM (inactive); with BT-549 it was > 100 µM (inactive); in the test on UACC-62, > 100 µM (inactive); in the test on UACC-257, 74 µM (inactive); in the test with KM12 it was 41.6 µM (inactive); with NCI-H522, 58.3 µM (inactive). For the same compound, the GI50 in the test on K562 was 28.6 µM (inactive); with HT-29 it was 32.3 µM (inactive); in the test on OVCAR-4 it was 95.1 µM (inactive); in the test on EKVX, 35.6 µM (inactive); in the test with RPMI-8226 it was 94 µM (inactive); in the test on T47D it was 64.9 µM (inactive). For the same compound, the GI50 was > 100 µM (inactive) with M14; 11.5 µM (inactive) in the test with MOLT-4; > 100 µM (inactive) with A498; 18.9 µM (inactive) with A549; 14 µM (inactive) in the test with SNB-75; 67.3 µM (inactive) in the test on Hs-578T. Further, the GI50 with MDA-N and with RXF 393 was > 100 µM (inactive) throughout.
As for `COC(=O)/C=C1\C(=O)C=C2[C@@H]3C[C@H]4C[C@H](CC[C@@]4(C)N21)C3(C)NC(C)=O` (stereo partly drawn), the GI50 in the test with UO-31 was 19.5 µM (inactive); in the test on BT-549 it was 11.1 µM (inactive); in the test with UACC-62 it was 17.6 µM (inactive); in the test with UACC-257 it was 15.6 µM (inactive); in the test on KM12 it was 16 µM (inactive); in the test with NCI-H522, 1.42 µM (inactive). For the same compound, the GI50 in the test on K562 was 7.66 µM (inactive); in the test on HT-29, 8.02 µM (inactive); in the test on OVCAR-4, 17.6 µM (inactive); with EKVX, 11.4 µM (inactive); in the test with RPMI-8226, 4.06 µM (inactive); in the test on T47D, 7.23 µM (inactive). For the same compound, the GI50 in the test with M14 is 8.91 µM (inactive); with MOLT-4, 3.33 µM (inactive); in the test with A498, 19 µM (inactive); in the test on A549, 23.6 µM (inactive); in the test with SNB-75, 13.2 µM (inactive); in the test on Hs-578T, 10.9 µM (inactive). In addition, the GI50 in the test with MDA-N is 11.2 µM (inactive); in the test on RXF 393 it was 4.51 µM (inactive).
With `c1ccc(/C(=N/Nc2ccccn2)c2ncccn2)cc1`, the GI50 with UO-31 was 0.617 µM (active); with BT-549 it was 11.5 µM (inactive); in the test on UACC-62 it was 2.82 µM (inactive); in the test on UACC-257 it was 0.729 µM (active); in the test with KM12 it was 3.18 µM (inactive); in the test on NCI-H522 it was < 0.0172 µM (active). Also, the GI50 in the test with K562 was 0.121 µM (active); with HT-29, < 0.01 µM (active); with OVCAR-4 it was 1.28 µM (inactive); in the test with EKVX, 0.292 µM (active); in the test with RPMI-8226, 1.39 µM (inactive); in the test on T47D, 0.0346 µM (active). The GI50 in the test with M14 was 0.386 µM (active); in the test with MOLT-4, 0.0662 µM (active); in the test with A498, > 100 µM (inactive); in the test with A549 it was 3.62 µM (inactive); in the test with SNB-75, 1.87 µM (inactive); in the test on Hs-578T it was 2.59 µM (inactive). The figures for the GI50 in the test with MDA-N and in the test on RXF 393 were 16.5 µM (inactive) and 11.3 µM (inactive), respectively.
Turning to `CC1=C(C(=O)OC2CC3CCC2(C)C3(C)C)C2Nc3ccccc3N(C)C2O1` (stereo not drawn), the GI50 in the test on UO-31 is 2.5 µM (inactive); in the test with BT-549 it was 2.34 µM (inactive); in the test with UACC-62 it was 1.98 µM (inactive); in the test on UACC-257 it was 1.79 µM (inactive); with KM12 it was 2.43 µM (inactive); in the test on NCI-H522 it was 1.93 µM (inactive). The GI50 in the test with K562 is 3.66 µM (inactive); with HT-29 it was 1.56 µM (inactive); with OVCAR-4, 1.67 µM (inactive); with EKVX it was 5.12 µM (inactive); with RPMI-8226, 2.17 µM (inactive); with T47D it was 3.04 µM (inactive). Further, the GI50 is 1.63 µM (inactive) in the test on M14; 1.84 µM (inactive) in the test on MOLT-4; 6.12 µM (inactive) in the test with A498; 2.05 µM (inactive) with A549; 3.43 µM (inactive) in the test on SNB-75; 3.26 µM (inactive) in the test on Hs-578T. The GI50 in the test with MDA-N is 1.77 µM (inactive); in the test with RXF 393, 2.63 µM (inactive).
For `CC(C)OP(=O)(OC(C)C)/C(C#N)=C/c1c[nH]c2ccccc12`, the GI50 was 31 µM (inactive) in the test on BT-549; 76.6 µM (inactive) with UACC-62; 54.3 µM (inactive) with UACC-257; > 100 µM (inactive) in the test on KM12; > 100 µM (inactive) in the test on NCI-H522; > 100 µM (inactive) in the test with K562. For the same compound, the GI50 with HT-29 is > 100 µM (inactive); in the test with OVCAR-4, 86.5 µM (inactive); in the test on EKVX it was 48.9 µM (inactive); in the test with RPMI-8226, > 100 µM (inactive); in the test on T47D, 49.8 µM (inactive); in the test with M14 it was 60.7 µM (inactive). Moreover, the GI50 with MOLT-4 was 88.3 µM (inactive); in the test on A498, > 100 µM (inactive); with A549, > 100 µM (inactive); in the test on SNB-75, 72.6 µM (inactive); with Hs-578T, > 100 µM (inactive); in the test with MDA-N, > 100 µM (inactive). Besides, the GI50 in the test with RXF 393 was > 100 µM (inactive).
Turning to `CCOC(=O)C(CC(C)C)NC(=O)C(Cc1ccccc1)NC(=O)CNC(=O)OC(C)(C)C` (stereo not drawn) (Boc-Gly-Phe-Leu-OEt; configuration not given here), the GI50 was 45.8 µM (inactive) with UO-31; 27.7 µM (inactive) in the test on BT-549; 18.4 µM (inactive) with UACC-62; 19.7 µM (inactive) in the test on UACC-257; 18.5 µM (inactive) with KM12; 19.1 µM (inactive) with NCI-H522. Besides, the GI50 was 19 µM (inactive) in the test with K562; 18.1 µM (inactive) in the test with HT-29; 36.9 µM (inactive) in the test on OVCAR-4; 22.3 µM (inactive) with EKVX; 20.9 µM (inactive) with RPMI-8226; 26.5 µM (inactive) in the test with T47D. The GI50 is 20 µM (inactive) in the test with M14; 11.1 µM (inactive) in the test on MOLT-4; 22.1 µM (inactive) in the test with A498; 18.7 µM (inactive) in the test on A549; 16.3 µM (inactive) in the test on SNB-75; 31.8 µM (inactive) with Hs-578T. The GI50 is 14.7 µM (inactive) in the test with MDA-N and 25.8 µM (inactive) with RXF 393.
As for `C=C(Cl)c1c(OC)cccc1OCc1ccccc1`, the GI50 with UO-31 was 55 µM (inactive); with BT-549, > 100 µM (inactive); with UACC-62, 30.4 µM (inactive); in the test with UACC-257, 20 µM (inactive); with KM12, 54.2 µM (inactive); in the test on NCI-H522, 44.6 µM (inactive). Also, the GI50 is 48.2 µM (inactive) with K562; 34.5 µM (inactive) with HT-29; 98.9 µM (inactive) in the test on OVCAR-4; 59.4 µM (inactive) in the test with EKVX; 43 µM (inactive) in the test with RPMI-8226; 25.1 µM (inactive) with T47D. In addition, the GI50 with M14 is > 100 µM (inactive); with MOLT-4, 64.7 µM (inactive); in the test with A498 it was 62.4 µM (inactive); with A549, > 100 µM (inactive); in the test on SNB-75, 23.5 µM (inactive); in the test with Hs-578T, > 100 µM (inactive). The results for the GI50 in the test on MDA-N and with RXF 393 were 42 µM (inactive) and 16.7 µM (inactive), respectively.
